Laboratory results reported in US6348487B1, “2-phenyl benzimidazole derivatives as MCP-1 antagonists” (Millennium Pharmaceuticals, Inc., priority 1996, dated 2002).
Marks after values point to notes of the source that are not given here.

Experiments:
[1] = tested on: T lymphocyte blast cells (CD3-Blasts); experiment: CD3-Blast Chemotaxis Assay (transendothelial migration to MCP-1); type: cell-based, human; details: 10 μM compound; MCP-1 about 10 nM; ECV304 endothelial coated Transwells
Description: Recombinant human MCP-1 was obtained from Peprotech (Rockey Hill, N.J.). T lymphocyte blast cells (CD3-Blasts) were generated by standard protocols (Coligan, J. E., A. M. Kruisbeek, D. H. Macgulies, E. M. Shevach, and W. Strober, editors. 1992. Current Protocols in Immunology. John Wiley and Sons, New York 7.1.2, 7.10.1-7.10. 10). Briefly, human peripheral blood mononuclear cells (PBMC) were isolated from heparinized venous blood by Percoll density gradient centrifugation (d=1.088) at room temperature. RBCs were removed by hypotonic lysis or dextran sedimentation. Blast cells were generated by incubating 2×10^6 PBMC in 24-well tissue culture plates that were coated with 2.5 μg of an anti-CD3 monoclonal antibody (identified as TR66, a gift from Dr. A. Lanzivecchia; similar monoclonal antibody is HIT3a, from Parmingen #30111A) at 37° C. for 48 to 72 hours, and then transferring 12 wells to T25 or T75 flasks with RPMI (Roswell Park Memorial Institute 1640, a growth cell medium available from Gibco/RBL, Inc., New York)+10% FCS (fetal calf serum)+50 units/ml IL-2. The cells are expanded and cultured for up to 3 weeks. CD3-Blast chemotaxis was assessed no sooner than 3 to 4 days after transfer to the IL-2 containing medium using a modification of a transendothelial migration assay (Carr. M. W., S. J. Roth, B. Luther, S. S. Rose, and T. A. Springer. 1994. Monocyte chemoattractant protein 1 acts as a T-lymphocyte chemoattractant. Proc. Natl. Acad. Sci. USA 91:3652-6). The endothelial cells used for this assay were the endothelial cell line ECV304. (ECV304 was from the European Collection of Animal Cell Cultures, Porton Downs, UK, assession #92091712). Endothelial cells were cultured on 6.5 mm diameter Transwell culture inserts (Costar) with a […] pore size. […] Background migration was determined by counting cells that migrated in the absence of MCP-1 in the lower chamber. […] The percent inhibition by compounds of directed migration was determined by the following formula: [drawing 32] […]

[2] = tested on: T cell recruitment at sites of DHR; experiment: Inhibition of T cell recruitment to rat skin inflammatory (DHR) sites; type: in vivo
Procedure: Inbred, approximately 200 g, male Lewis rats were used in all experiments. Cutaneous delayed hypersensitivity (DHR) was induced as previously described (1). Briefly, rats were sensitized to KLH (Sigma Chemical Co., St. Louis, Mo.) by administering 50 μg KLH in 0.1 mL complete Freund's adjuvant (CFA; Sigma Chemical Co.) into each of 4 subcutaneous sites. After 14 days, DHR was elicited by the challenge of 5 μg KLH in PBS into multiple intradermal sites on the back. Analysis was performed 24 hours after antigen challenge. For each experiment, there were at least three groups of animals of at least four animals in each group. […]
T cell recruitment at sites of DHR was quantified using methods previously described (1-4). […] The cells in the effluent were highly purified (>95%) rat T cells as assessed by anti-rat CD3 (monoclonal antibody KT3, Biosource International, Camarillo, Calif.) immunoreactivity by flow cytometry. […] Skin challenge sites (8 mm in diameter) were counted on a γ counter 24 hours after injection of radiolabeled T cells. Lung, liver, and spleen were also collected and counted as comparative indices for evaluation of input.
Statistical significance was determined using a paired Student's t-test. […]

## CCN(CC)CCN(CCN(CC)CC)c1ccc(-c2nc3cc(Cl)c(Cl)cc3[nH]2)cc1 [Example 1, N-[4-(5,6-dichloro-1H-benzimidazol-2-yl)-phenyl]-N-(2-diethylamino-ethyl)-N, N-diethyl-ethane-1,2-diamine]
[1]
  % Inhibition of Chemotaxis at 10 μM: 62-142* %
[2]; 30 and 23 mg/kg per os at the time of antigen challenge, 24 hour period (FIG. 2)
  inhibition of T cell recruitment in rat DHR: statistically significant inhibitory effect
[2]; administered once per os at the time of antigen challenge (FIG. 2)
  recruitment of 111In-labeled rat T cells to skin DHR sites: inhibited the recruitment of ^111In-labeled rat T cells to skin DHR sites in a dose-dependent fashion
